Measured values from US20090012103A1, “SUBSTITUTED HETEROCYCLIC COMPOUNDS” (priority 2007, published 2009).

Assays:
hERG potassium channel = hERG potassium channel (Homo sapiens, UniProt Q12809); test: hERG screening assay (PatchXpress patch clamp, CHO cell line)
Experimental: Compounds were screened to test their activity in blocking the hERG potassium channel. The hERG channel is heterologously expressed in a CHO (Chinese Hamster Ovary) cell line. Cells are maintained with standard tissue culture procedures and stable channel expression is maintained with 500 μg/ml G418 in the culture medium. Cells are harvested for testing on the PatchXpress automated patch clamp with Accumax (Innovative Cell Technologies, San Diego, Calif.) to isolate single cells.
The following solutions are used for electrophysiological recordings. The external solution contains: 2 mM CaCl2; 2 mM MgCl2; 4 mM KCl; 150 mM NaCl; 10 mM Glucose; 10 mM HEPES (pH 7.4 with 1M NaOH, osmolarity).
hERG channels are activated when the voltage is stepped to +20 mV from the −80 mV holding potential (see FIG. 3). During a 5 second step at +20 mV, the channels activate and then largely inactivate, so the currents are relatively small. Upon returning to −50 mV from +20 mV, hERG currents transiently become much larger as inactivation is rapidly removed and then the channel closes. The first step to −50 mV for 300 ms is used as a baseline for measuring the peak amplitude during the step to −50 mV after channel activation. The peak current at −50 mV is measured both under control conditions and after addition of compound.
All compounds are prepared as 10 mM DMSO stocks in glass vials. Stock solutions are mixed by vigorous vortexing and sonication for about 2 minutes at room temperature. For testing, compounds are diluted in glass vials using an intermediate dilution step in pure DMSO and then further diluted to working concentrations in external solution. Dilutions are prepared no longer than 20 minutes before use.
After achieving the whole-cell configuration, cells are monitored for 90 seconds to assess stability and washed with external solution for 66 seconds. The voltage protocol described above is then applied to the cells every 12 seconds and throughout the whole procedure. Only cells with stable recording parameters and meeting specified health criteria are allowed to enter the compound addition procedure.
External solution containing 0.1% DMSO (vehicle) is applied to the cells first to establish the control peak current amplitude. After allowing the current to stabilize for 3 to 5 minutes, 1 μM and then 10 μM test compounds are applied. Each compound concentration is added 4 times and cells are kept in test solution until the effect of the compound reaches steady state or for a maximum of 12 minutes. […] Washout in the external solution compartment is performed until the recovery of the current reaches steady state. Data are analyzed using DataXpress, Clampfit (Molecular Devices, Inc., Sunnyvale) and Origin 7 (Originlab Corp.)

[1] = biological target: T1, wild-type human cardiac sodium channel, hNav1.5 (Homo sapiens, UniProt Q14524); test: Peak INa screening assay (tonic block TB and use-dependent block UDB of peak sodium current); type: cell-based; conditions: compound at 10 μM
T1 sequence (Q14524 whole entry): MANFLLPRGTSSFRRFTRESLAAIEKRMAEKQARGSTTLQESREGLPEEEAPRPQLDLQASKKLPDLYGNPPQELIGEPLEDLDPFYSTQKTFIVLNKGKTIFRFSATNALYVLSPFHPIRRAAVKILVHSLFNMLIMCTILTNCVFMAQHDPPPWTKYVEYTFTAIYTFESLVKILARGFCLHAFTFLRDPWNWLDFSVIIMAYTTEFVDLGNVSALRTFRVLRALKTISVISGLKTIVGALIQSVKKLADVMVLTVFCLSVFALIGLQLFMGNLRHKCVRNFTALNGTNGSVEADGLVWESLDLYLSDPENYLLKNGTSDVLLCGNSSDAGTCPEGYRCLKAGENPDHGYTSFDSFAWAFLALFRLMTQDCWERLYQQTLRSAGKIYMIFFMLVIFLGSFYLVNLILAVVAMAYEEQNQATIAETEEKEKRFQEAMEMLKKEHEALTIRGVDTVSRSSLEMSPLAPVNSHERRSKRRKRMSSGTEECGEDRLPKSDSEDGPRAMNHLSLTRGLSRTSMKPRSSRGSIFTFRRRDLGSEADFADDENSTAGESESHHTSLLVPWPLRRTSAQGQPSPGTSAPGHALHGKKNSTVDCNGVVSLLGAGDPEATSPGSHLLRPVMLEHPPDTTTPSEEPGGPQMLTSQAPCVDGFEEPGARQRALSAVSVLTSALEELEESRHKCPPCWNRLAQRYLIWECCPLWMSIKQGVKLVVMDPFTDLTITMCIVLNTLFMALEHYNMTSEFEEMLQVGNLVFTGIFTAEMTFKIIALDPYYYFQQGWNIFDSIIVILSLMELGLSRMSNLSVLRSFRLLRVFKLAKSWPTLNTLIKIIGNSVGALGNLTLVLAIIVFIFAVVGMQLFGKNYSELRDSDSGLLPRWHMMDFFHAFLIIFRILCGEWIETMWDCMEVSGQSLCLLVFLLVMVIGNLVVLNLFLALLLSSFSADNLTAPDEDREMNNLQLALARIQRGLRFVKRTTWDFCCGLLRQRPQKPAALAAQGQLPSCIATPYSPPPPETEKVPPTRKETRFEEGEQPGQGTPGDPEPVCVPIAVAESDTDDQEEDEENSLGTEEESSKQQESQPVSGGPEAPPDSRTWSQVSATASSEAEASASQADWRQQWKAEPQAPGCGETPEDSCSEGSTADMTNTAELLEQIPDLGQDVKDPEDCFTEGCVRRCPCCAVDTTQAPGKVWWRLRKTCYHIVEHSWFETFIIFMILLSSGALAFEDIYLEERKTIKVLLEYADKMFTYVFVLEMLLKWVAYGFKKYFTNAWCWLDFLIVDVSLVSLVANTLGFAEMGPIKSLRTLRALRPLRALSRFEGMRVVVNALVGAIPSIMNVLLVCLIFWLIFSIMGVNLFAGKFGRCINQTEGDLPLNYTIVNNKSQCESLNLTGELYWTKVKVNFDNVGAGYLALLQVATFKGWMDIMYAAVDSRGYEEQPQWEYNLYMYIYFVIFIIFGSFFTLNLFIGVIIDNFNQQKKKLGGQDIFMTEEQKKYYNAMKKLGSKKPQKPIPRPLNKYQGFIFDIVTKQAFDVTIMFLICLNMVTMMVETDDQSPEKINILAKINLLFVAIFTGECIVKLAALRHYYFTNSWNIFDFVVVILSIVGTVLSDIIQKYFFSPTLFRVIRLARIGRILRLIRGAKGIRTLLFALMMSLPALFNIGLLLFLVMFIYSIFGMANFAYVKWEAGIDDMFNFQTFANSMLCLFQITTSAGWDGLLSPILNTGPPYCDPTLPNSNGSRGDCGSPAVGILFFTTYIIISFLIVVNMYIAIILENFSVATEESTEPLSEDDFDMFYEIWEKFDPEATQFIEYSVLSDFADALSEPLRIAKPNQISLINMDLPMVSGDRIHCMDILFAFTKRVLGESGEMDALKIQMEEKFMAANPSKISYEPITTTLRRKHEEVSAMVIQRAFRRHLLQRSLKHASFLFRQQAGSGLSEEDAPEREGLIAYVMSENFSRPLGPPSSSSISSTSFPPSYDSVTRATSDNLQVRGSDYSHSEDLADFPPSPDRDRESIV

[2] = biological target: T1, wild-type human cardiac sodium channel, hNav1.5; test: Late INa screening assay (late sodium current, PatchXpress whole cell patch clamp); type: cell-based; conditions: compound at 10 μM; read-out: Late INa % blk
[3] = tonic block, read-out: Tonic Peak INa % blk
[4] = use-dependent block, read-out: UDB Peak INa % blk

hERG potassium channel, sequence (Q12809 whole entry): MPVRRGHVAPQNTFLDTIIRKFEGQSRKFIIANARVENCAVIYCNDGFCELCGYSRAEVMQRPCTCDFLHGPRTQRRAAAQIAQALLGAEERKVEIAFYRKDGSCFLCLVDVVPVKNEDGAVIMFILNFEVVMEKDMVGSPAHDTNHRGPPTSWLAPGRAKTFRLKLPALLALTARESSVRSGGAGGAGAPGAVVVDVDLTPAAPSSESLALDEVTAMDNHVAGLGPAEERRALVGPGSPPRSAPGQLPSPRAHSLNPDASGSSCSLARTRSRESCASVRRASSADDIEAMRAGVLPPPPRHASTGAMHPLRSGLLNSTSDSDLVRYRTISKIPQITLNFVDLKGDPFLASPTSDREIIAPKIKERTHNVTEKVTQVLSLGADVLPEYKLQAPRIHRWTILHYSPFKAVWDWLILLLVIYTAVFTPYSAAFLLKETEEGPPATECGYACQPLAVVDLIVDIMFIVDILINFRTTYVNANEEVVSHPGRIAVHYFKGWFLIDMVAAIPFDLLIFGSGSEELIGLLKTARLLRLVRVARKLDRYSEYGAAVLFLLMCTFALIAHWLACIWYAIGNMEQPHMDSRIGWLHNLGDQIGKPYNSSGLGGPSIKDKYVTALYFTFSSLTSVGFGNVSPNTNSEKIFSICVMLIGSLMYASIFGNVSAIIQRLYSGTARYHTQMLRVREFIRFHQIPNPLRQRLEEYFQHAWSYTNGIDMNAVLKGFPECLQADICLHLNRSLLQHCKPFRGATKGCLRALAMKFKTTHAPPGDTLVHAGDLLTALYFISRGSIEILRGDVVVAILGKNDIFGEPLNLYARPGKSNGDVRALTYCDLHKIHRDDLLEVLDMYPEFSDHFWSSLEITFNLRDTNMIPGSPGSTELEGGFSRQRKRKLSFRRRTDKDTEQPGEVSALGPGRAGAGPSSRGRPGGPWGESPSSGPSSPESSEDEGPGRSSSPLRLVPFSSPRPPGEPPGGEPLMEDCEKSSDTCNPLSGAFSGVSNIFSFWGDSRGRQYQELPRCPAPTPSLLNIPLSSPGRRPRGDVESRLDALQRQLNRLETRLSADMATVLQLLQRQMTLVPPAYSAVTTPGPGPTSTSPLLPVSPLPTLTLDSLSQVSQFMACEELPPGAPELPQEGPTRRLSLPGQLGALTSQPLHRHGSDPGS

CC1=C(C(=O)OCc2ccccc2)C(c2ccc3ccccc3c2)c2c(C)n[nH]c2N1 (centres unmarked) [PT-325, benzyl 3,6-dimethyl-4-(naphthalen-2-yl)-4,7-dihydro-1H-pyrazolo[3,4-b]pyridine-5-carboxylate]
hERG Patch Clamp hERG % blk (hERG potassium channel; 1 μM): 10.0% | hERG Patch Clamp hERG % blk (hERG potassium channel; 10 μM): 36.0% | inhibition at 10 µM [1, 3]: 19.9% | inhibition at 10 µM [1, 4]: 24.3% | inhibition at 10 µM [2]: 53.8%

CC1=C(C(=O)OCc2ccccc2)C(c2ccccc2N2CCN(S(C)(=O)=O)CC2)n2nnnc2N1 (centres unmarked) [PT-339, benzyl 5-methyl-7-(2-(4-(methylsulfonyl)piperazin-1-yl)phenyl)-4,7-dihydrotetrazolo[1,5-a]pyrimidine-6-carboxylate]
hERG Patch Clamp hERG % blk (hERG potassium channel; 1 μM): 11.5% | hERG Patch Clamp hERG % blk (hERG potassium channel; 10 μM): 43.5% | inhibition at 10 µM [1, 3]: 22.2% | inhibition at 10 µM [1, 4]: 9% | inhibition at 10 µM [2]: 51.4%

CC1=C(C(=O)OCc2ccccc2)C(c2ccccc2N2CCN(C)CC2)n2nnnc2N1 (centres unmarked) [PT-340, benzyl 5-methyl-7-(2-(4-methylpiperazin-1-yl)phenyl)-4,7-dihydrotetrazolo[1,5-a]pyrimidine-6-carboxylate]
hERG Patch Clamp hERG % blk (hERG potassium channel; 1 μM): 57.0% | hERG Patch Clamp hERG % blk (hERG potassium channel; 10 μM): 93.5% | inhibition at 10 µM [1, 3]: 89.1% | inhibition at 10 µM [2]: 71.9%

CC1=C(C(=O)OCc2ccccc2)C(c2ccccc2-c2cccc(NS(C)(=O)=O)c2)n2nnnc2N1 (centres unmarked) [PT-348, benzyl 5-methyl-7-(3′-(methylsulfonamido)biphenyl-2-yl)-4,7-dihydrotetrazolo[1,5-a]pyrimidine-6-carboxylate]
hERG Patch Clamp hERG % blk (hERG potassium channel; 1 μM): 10.0% | hERG Patch Clamp hERG % blk (hERG potassium channel; 10 μM): 38.5% | inhibition at 10 µM [1, 3]: 17.2% | inhibition at 10 µM [2]: 71.6%

CC1=C(C(=O)OCc2ccccc2)C(c2nccs2)c2cn[nH]c2N1 (centres unmarked) [PT-369, benzyl 6-methyl-4-(thiazol-2-yl)-4,7-dihydro-1H-pyrazolo[3,4-b]pyridine-5-carboxylate]
hERG Patch Clamp hERG % blk (hERG potassium channel; 1 μM): 10.0% | hERG Patch Clamp hERG % blk (hERG potassium channel; 10 μM): 25.0% | inhibition at 10 µM [1, 3]: 26.3% | inhibition at 10 µM [1, 4]: 13.5% | inhibition at 10 µM [2]: 47.3%

COc1ccc(C2C(C(=O)OCc3ccccc3)=C(C)Nc3nnnn32)c(C#N)c1 (centres unmarked) [PT-389, benzyl 7-(2-cyano-4-methoxyphenyl)-5-methyl-4,7-dihydrotetrazolo[1,5-a]pyrimidine-6-carboxylate]
hERG Patch Clamp hERG % blk (hERG potassium channel; 1 μM): 23.5% | hERG Patch Clamp hERG % blk (hERG potassium channel; 10 μM): 69.0% | inhibition at 10 µM [1, 3]: -1.6% | inhibition at 10 µM [2]: 49.7%

CCOC(=O)C1=C(C)NC(C)=C(C(=O)OCC)C1c1ccccc1Br [PT-430, diethyl 4-(2-bromophenyl)-2,6-dimethyl-1,4-dihydropyridine-3,5-dicarboxylate]
hERG Patch Clamp hERG % blk (hERG potassium channel; 1 μM): 10.0% | hERG Patch Clamp hERG % blk (hERG potassium channel; 10 μM): 21.5% | inhibition at 10 µM [1, 3]: 91% | inhibition at 10 µM [1, 4]: 55.6% | inhibition at 10 µM [2]: 95.3%

CCOC(=O)C1=C(C)Nc2[nH]ncc2C1c1ccc(OC)cc1OCc1ccccc1 (centres unmarked) [PT-445, ethyl 4-(2-(benzyloxy)-4-methoxyphenyl)-6-methyl-4,7-dihydro-1H-pyrazolo[3,4-b]pyridine-5-carboxylate]
hERG Patch Clamp hERG % blk (hERG potassium channel; 1 μM): 10.5% | hERG Patch Clamp hERG % blk (hERG potassium channel; 10 μM): 50.0% | inhibition at 10 µM [1, 3]: 49.6% | inhibition at 10 µM [1, 4]: 31.6% | inhibition at 10 µM [2]: 62.2%

CCOC(=O)C1=C(C)Nc2nnnn2C1c1cccc(Oc2ccccc2)c1 (centres unmarked) [PT-464, ethyl 5-methyl-7-(3-phenoxyphenyl)-4,7-dihydrotetrazolo[1,5-a]pyrimidine-6-carboxylate]
hERG Patch Clamp hERG % blk (hERG potassium channel; 1 μM): 11.0% | hERG Patch Clamp hERG % blk (hERG potassium channel; 10 μM): 55.0% | inhibition at 10 µM [1, 3]: 2.7% | inhibition at 10 µM [2]: 55.8%
